Our source for the TGI and GI50 values is PubChem BioAssay (NCI).

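Exposure lasted 48 hours, with cells grown in 96-well plates and compounds tested at five concentrations. GI50: concentration for 50% inhibition of growth. TGI is the concentration that stops growth completely.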 Bounds are passed on as bounds.

Holding throughout (experiment): inhibition of tumour cell growth, NCI panel, 48 h
Test [1] deals with CCRF-CEM leukemia.
For test [2], the system named is OVCAR-4 ovarian.
Test [3] concerns 786-0 renal.
The subject of test [4] is SNB-19 CNS.
For test [5], the system named is LOX IMVI melanoma.
In test [6] the test system is NCI-H226 lung.
Test [7] has as its system HT29 colon.
The subject of test [8] is SK-MEL-28 melanoma.
For test [9], the system named is MDA-MB-435.

Turning to `CN(Cc1ccccc1)C1(N(C)Cc2ccccc2)CC1`, the TGI in test [1], in test [2], in [3], in [4], in test [5] and in [6] was above 100 µM throughout. The TGI in test [7] and in [8] was above 100 µM each time.
As to `C1C[OH+]CC[OH+]CC[OH+]CC[OH+]CC[OH+]CC[OH+]1.[Cl-].[Ta+5]`, the GI50 was above 100 µM in test [2]; above 100 µM in test [3]; 24.3 µM in [4]; above 100 µM in test [5]; 13.3 µM in test [6]; above 100 µM in test [7]. Moreover, in [8], the GI50 was above 100 µM. In addition, the TGI in test [2] was above 100 µM; in test [3], above 100 µM; in test [4], above 100 µM; in [5], above 100 µM; in [6], 30.5 µM; in [7], above 100 µM. The compound further displayed a TGI in test [8] above 100 µM.
In the case of `CCOC(=O)C1(C(=O)OCC)CC=C(C)CC12C(=O)Nc1ccccc12` (centres undefined), the TGI in test [1], in test [2], in [3], in test [4], in test [5] and in test [6] was above 100 µM each time. Besides, the TGI in test [7] and in test [8] was above 100 µM each time.
`C=CCC(C)(C(=O)NCCC)C(=O)c1ccccc1O` (centres undefined): the TGI in [1], in test [2], in test [3], in test [4], in test [6] and in [8] was above 100 µM in each case.
For the compound `CCCCCCCCCC(=O)N[C@H]1CCc2cc(OC)c(OC)c(OC)c2-c2ccc(SC)c(=O)cc21`, the TGI is above 100 µM in test [1]; above 100 µM in [2]; 10.4 µM in [3]; 75 µM in test [4]; 0.0645 µM in test [7]. For the same compound, the figures for the GI50 in [2] and in [6] were 10.8 µM and 0.619 µM, respectively.
Turning to `COC1(OC)c2ccccc2C2(O)c3ccccc3C(=O)C12` (centres undefined), the TGI is 84.5 µM in test [1]; above 100 µM in test [3]; above 100 µM in test [4]; above 100 µM in [5]; above 100 µM in [6]; above 100 µM in test [7]. The compound also came in with a TGI in test [8] above 100 µM.
On to `CCc1cccc(C(C)CC)c1NC(=O)CC1C(=O)Nc2ccccc2S1=O` (centres undefined), for which the TGI is 90.3 µM in test [1]; 47.9 µM in test [2]; above 100 µM in [3]; above 100 µM in test [4]; 73.7 µM in [5]; above 100 µM in test [6]. Further, the TGI in [7] came to 55.1 µM; in test [8], 68.1 µM.
Turning to `Cc1cccc(N2C(=O)C(=O)C(c3nc4ccccc4s3)C(=O)C2=O)c1C`, the TGI in [1], in [2], in test [3], in test [4], in test [5] and in [6] was above 100 µM throughout. The TGI in test [7] and in test [8] was above 100 µM in each case.
`COc1ccc(/C=C/C(C(=O)O)C(=O)O)cc1`: the TGI in test [1] was 82.3 µM; in test [2], above 100 µM; in [3], above 100 µM; in [4] it was above 100 µM; in [5], 39.5 µM; in test [6], above 100 µM. In addition, the TGI in [7] and in test [8] was above 100 µM in each case.
On to `Cc1ccc(N(C(=O)CC(=O)N2N=C(c3ccccc3)C(N=Nc3ccc([N+](=O)[O-])cc3)C2=O)C(=O)c2ccc(Cl)cc2)cc1` (centres undefined), for which the TGI in [1] is above 30.9 µM; in test [2], above 100 µM; in [3], 30.5 µM; in test [4], 60.1 µM; in test [5] it was 15.7 µM; in test [6], above 94.8 µM. The TGI in [7] is above 53 µM; in test [8] it was above 100 µM.
On to `C=CCNC(=S)OCCCCCCCCCC`, for which the TGI is 37.4 µM in test [1]; 30.5 µM in test [2]; 32.6 µM in test [3]; 83.9 µM in test [4]; 26.9 µM in [5]; 32.5 µM in test [7]. This compound returned a TGI in test [8] of 44.9 µM.
Take `O=C1CCC(=O)C12CCc1cccc(O)c12`: the TGI in test [2], in test [3], in test [5], in [7] and in test [8] was above 100 µM each time.
Turning to `O=C1NC(=S)NC(=O)C1=Cc1ccc2ccccc2n1`, the TGI in test [1], in [2], in test [3], in test [4], in test [5] and in test [6] was above 100 µM throughout. Further, the TGI in [7] and in test [8] was above 100 µM in each case.
In the case of `CC1=N/C(=C\c2cccc3ccccc23)C(=O)O1`, the TGI in [1], in test [3], in test [4], in test [7] and in [8] was above 100 µM in each case.
With `N#Cc1nc(Nc2ccc([N+](=O)[O-])cc2)sc1N`, the TGI in test [1] was above 100 µM; in test [2] it was above 100 µM; in test [3], above 100 µM; in test [4], above 95.1 µM; in test [5] it was 28.6 µM; in test [6] it was above 86.3 µM. Moreover, the TGI in test [7] is above 100 µM; in [8], above 74.3 µM.
Turning to `COc1ccc(Nc2c[nH]c(=O)[nH]c2=O)cc1`, the TGI in test [1], in test [2], in test [3], in test [4], in test [5] and in test [6] was above 100 µM throughout. For the same compound, the TGI in test [9], in [7] and in test [8] was above 100 µM throughout.
